Source: patent US9115159B2, “Phosphate compounds, a process for their preparation and pharmaceutical compositions containing them” (LES LABORATOIRES SERVIER, priority 2013, dated 2015)
Where two headings read alike, the source gives them in different places.

How the values were obtained:
[1] = In vitro test on human Caco-2 cells, cellular transport A to B; format: in vitro ADME; conditions: human, Caco-2, drug incubated and measured, A to B, 1 or 3 μM, read-out: Papp, the drug after incubation of the drug
Outline: (§1)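 Apical-to-basolateral transport, prodrug or drug dosed apically at 1 or 3 μM in duplicate for 120 minutes. Apical samples at 0 and 120 min and basolateral samples at 120 min quantified by LC-MS/MS (LOQ 2 ng/mL) for prodrug and drug. Papp, predicted human Fabs and percent recovery calculated.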

[2] = tested on: human Caco-2 cells; test: as above; format: in vitro ADME; conditions: drug incubated and measured, 120 minutes
Outline: as §1

[3] = Pharmacokinetic profile / in vivo conversion after oral administration to SCID mice (plasma, LC-MS/MS); set-up: species or system female SCID mice; conditions: female, mouse, po; for Cmax: read-out: Cmax, compound measured: Drug from Example 1; for AUC(0-t): read-out: AUCt, compound measured: Drug from Example 1; for Tmax: read-out: Tmax, compound measured: Drug from Example 1
Outline: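 Female SCID mice were gavaged with phosphate prodrug in EtOH/PEG300/water (10/40/50) at 3 or 25 mg/kg, or in aqueous media (1 mM Na2CO3, water, or 1M Na2CO3) at 3–100 mg/kg. Plasma prodrug and hydroxylated drug were measured by TFC-LC-MS/MS over 0.25–24 h. Non-compartmental analysis used mean concentrations.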

[4] = tested on: caspase 3; test: Induction of caspase activity in vivo (DEVDase activity in tumour lysates, RS4;11 xenograft); set-up: species or system mice (SCID strain); conditions: 100 mg/kg p.o., 16 hours after treatment, RS4;11 tumour lysates, treated mice / control mice
Experimental: The ability of the compounds of formula (I′) to activate caspase 3 is evaluated in a xenograft model of RS4;11 leukaemia cells.
1×10^7 RS4;11 cells are grafted sub-cutaneously into immunosuppressed mice (SCID strain). 25 to 30 days after the graft, the animals are treated orally with the various compounds. Sixteen hours after treatment, the tumour masses are recovered and lysed, and the caspase 3 activity is measured in the tumour lysates.
This enzymatic measurement is carried out by assaying the appearance of a fluorigenic cleavage product (DEVDase activity, Promega). It is expressed in the form of an activation factor corresponding to the ratio between the two caspase activities: the activity for the treated mice divided by the activity for the control mice.
N-(4-Hydroxyphenyl)-3-{6-[((3S)-3-(4-morpholinylmethyl)-3,4-dihydro-2(1H)-isoquinolinyl)carbonyl]-1,3-benzodioxol-5-yl}-N-phenyl-5,6,7,8-tetrahydro-1-indolizine carboxamide (also referred to as the drug from Example 1) was tested. At a dose of 100 mg/kg p.o., the in vivo caspase activation factor is 29.3.

[5] = Drug from Example 1 administered 3 mg/kg p.o., lipid formulation
[6] = Drug from Example 1 administered 25 mg/kg p.o., lipid formulation
[7] = Drug from Example 1 administered 30 mg/kg p.o., lipid formulation
[8] = Drug from Example 1 administered 100 mg/kg p.o., lipid formulation

Papp A→B at 120 min [1]: 0.65 ×10⁻⁶ cm/s
Yield (experiment yield), the drug after incubation of the drug [2]: Yield (%) = 37
Fabs (predicted absorbed fraction in humans), the drug after incubation of the drug ([2]; A to B, 1 or 3 μM): Fabs (%) = 67
Cmax ([3]; Drug from Example 1 administered 3 mg/kg p.o., lipid formulation (ethanol/PEG 300/water 10/40/50)): 295 ng/mL
AUC(0-t) [3, 5]: 225 ng·h/mL
Tmax [3, 5]: 15 min
AUC(0-t) [3, 6]: 20400 ng·h/mL
Cmax [3, 6]: 5070 ng/mL
Tmax [3, 6]: 120 min
AUC(0-t) [3, 7]: 24200 ng·h/mL
Cmax [3, 7]: 8580 ng/mL
Tmax [3, 7]: 60 min
AUC(0-t) [3, 8]: 148000 ng·h/mL
Cmax [3, 8]: 25900 ng/mL
Tmax [3, 8]: 30 min
Compound: O=C(c1cc(-c2cc3c(cc2C(=O)N2Cc4ccccc4C[C@H]2CN2CCOCC2)OCO3)n2c1CCCC2)N(c1ccccc1)c1ccc(O)cc1 [Drug from Example 1, N-(4-hydroxyphenyl)-3-{6-[((3S)-3-(4-morpholinylmethyl)-3,4-dihydro-2(1H)-isoquinolinyl)carbonyl]-1,3-benzodioxol-5-yl}-N-phenyl-5,6,7,8-tetrahydro-1-indolizine carboxamide]
in vivo caspase activation factor [4]: 29.3
